Calls of active or inactive are those of the source.

The target in one test is T1, Protein RecA (Mycobacterium tuberculosis, UniProt P9WHJ3).
T1 sequence (P9WHJ3 whole entry): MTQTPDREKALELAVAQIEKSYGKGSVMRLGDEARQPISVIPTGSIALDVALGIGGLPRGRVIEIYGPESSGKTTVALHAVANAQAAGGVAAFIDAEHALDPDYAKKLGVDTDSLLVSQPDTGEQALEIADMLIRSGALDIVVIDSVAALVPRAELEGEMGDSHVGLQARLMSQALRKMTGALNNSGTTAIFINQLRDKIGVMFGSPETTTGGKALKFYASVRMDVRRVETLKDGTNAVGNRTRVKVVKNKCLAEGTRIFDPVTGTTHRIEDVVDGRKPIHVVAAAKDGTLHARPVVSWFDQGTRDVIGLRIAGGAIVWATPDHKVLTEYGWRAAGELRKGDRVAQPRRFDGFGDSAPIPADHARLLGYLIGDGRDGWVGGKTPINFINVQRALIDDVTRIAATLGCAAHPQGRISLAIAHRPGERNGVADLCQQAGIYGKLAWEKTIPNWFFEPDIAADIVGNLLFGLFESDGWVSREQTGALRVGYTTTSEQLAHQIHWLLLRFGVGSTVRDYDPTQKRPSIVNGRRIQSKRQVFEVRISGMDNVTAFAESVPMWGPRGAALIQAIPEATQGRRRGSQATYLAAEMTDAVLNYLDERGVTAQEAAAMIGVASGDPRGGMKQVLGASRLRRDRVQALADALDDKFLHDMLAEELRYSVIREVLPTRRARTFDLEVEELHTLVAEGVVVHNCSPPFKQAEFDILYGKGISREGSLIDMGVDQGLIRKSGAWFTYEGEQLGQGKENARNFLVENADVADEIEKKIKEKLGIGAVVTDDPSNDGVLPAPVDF
Description: Fluorescence Cell-Free Homogeneous Dose Retest to Identify Inhibitors of RecA-Intein Splicing Activity. [Related pubchem assays (depositor defined):AID2097, AID2223, AID489010, AID492950]. The format is functional.

Test [1] has as its target T2, Hexokinase HKDC1 (Homo sapiens, UniProt Q2TB90).
T2 sequence (Q2TB90 whole entry): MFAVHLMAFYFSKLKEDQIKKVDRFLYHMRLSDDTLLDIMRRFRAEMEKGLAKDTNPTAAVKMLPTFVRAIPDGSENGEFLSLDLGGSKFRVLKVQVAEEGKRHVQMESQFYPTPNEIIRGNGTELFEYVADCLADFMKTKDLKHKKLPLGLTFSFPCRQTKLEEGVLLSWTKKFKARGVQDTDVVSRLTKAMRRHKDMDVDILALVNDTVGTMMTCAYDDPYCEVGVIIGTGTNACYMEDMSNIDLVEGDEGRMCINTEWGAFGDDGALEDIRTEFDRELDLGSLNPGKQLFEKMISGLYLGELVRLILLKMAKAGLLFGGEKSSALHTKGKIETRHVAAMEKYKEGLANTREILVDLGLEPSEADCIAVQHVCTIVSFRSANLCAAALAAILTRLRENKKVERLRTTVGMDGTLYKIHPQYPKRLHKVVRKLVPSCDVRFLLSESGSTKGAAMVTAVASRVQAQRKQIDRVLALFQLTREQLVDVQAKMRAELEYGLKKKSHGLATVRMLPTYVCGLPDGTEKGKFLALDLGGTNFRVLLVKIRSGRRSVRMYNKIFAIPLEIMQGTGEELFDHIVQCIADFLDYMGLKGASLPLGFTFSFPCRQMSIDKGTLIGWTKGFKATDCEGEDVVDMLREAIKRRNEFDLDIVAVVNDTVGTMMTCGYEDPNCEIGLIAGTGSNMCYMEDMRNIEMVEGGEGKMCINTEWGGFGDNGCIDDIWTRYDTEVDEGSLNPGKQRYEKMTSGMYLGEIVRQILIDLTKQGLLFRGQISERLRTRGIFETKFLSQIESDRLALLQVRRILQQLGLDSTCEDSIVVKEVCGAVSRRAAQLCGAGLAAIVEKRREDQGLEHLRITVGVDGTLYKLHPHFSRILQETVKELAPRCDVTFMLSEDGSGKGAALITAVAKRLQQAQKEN
Description: HKDC1 hexokinase inhibitors, SAR follow-up, biochemical, set 2 (AID 588355). The class given is functional.

Test [2] has as its target T2, Hexokinase HKDC1. In words: HKDC1 hexokinase inhibitors, dose response, biochemical, W721R variant (AID 504729). The format is functional.
For the next test, the target named is Hexokinase-1 (Homo sapiens, UniProt P19367). Description: HK1 enzyme inhibition by HKDC1 hits, SAR follow-up, selectivity assay for HKDC1 inhibitor project, biochemical, set 2, resazurin fluorescence coupled readout (AID 588356). The format is functional. In general terms: Alamar Blue is a resazurin reagent that responds to reducing activity.
Test [3] concerns the target T3, Replicative DNA helicase DnaB (Mycobacterium tuberculosis, UniProt P9WMR3).
T3 sequence (P9WMR3 whole entry): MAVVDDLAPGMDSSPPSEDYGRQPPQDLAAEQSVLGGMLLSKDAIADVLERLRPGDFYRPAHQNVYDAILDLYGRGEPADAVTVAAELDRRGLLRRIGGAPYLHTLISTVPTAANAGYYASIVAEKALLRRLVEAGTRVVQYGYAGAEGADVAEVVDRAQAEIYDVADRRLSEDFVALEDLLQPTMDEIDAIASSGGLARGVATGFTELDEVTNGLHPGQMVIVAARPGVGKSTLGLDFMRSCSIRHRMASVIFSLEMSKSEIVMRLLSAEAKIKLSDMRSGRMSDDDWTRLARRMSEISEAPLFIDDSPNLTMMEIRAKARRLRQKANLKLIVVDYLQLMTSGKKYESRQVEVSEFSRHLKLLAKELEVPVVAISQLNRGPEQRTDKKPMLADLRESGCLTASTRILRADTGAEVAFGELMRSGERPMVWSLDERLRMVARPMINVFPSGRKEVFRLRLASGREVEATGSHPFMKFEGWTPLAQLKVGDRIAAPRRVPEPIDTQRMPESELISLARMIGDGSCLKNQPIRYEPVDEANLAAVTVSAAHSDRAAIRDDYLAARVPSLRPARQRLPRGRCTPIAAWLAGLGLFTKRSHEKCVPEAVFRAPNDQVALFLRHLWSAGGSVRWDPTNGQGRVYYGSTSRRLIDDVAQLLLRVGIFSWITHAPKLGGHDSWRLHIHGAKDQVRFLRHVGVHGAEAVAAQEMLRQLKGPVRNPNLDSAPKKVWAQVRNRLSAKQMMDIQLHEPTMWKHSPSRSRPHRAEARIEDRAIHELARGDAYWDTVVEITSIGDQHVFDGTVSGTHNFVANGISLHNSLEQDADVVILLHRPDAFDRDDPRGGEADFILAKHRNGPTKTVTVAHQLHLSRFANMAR
Description: DnaB intein splicing inhibitors, dose response, biochemical, cell-free fluorescence (AID 449749). The class given is functional.

Test [4] has as its system HEK293. Description: optical interference in Abeta FP readout, dose response, artefact control for IDE activator project, biochemical, fluorescence polarization (AID 588442). The note with it: Homo sapiens. The format is functional, cell-based. In general terms: Polarisation of emitted light reports the rotation of a fluorescent probe.
The target in test [5] is Beta-lactamase (Salmonella choleraesuis (strain SC-B67), UniProt Q5J463).
Beta-lactamase (Salmonella choleraesuis (strain SC-B67), UniProt Q5J463), sequence (Q5J463 whole entry): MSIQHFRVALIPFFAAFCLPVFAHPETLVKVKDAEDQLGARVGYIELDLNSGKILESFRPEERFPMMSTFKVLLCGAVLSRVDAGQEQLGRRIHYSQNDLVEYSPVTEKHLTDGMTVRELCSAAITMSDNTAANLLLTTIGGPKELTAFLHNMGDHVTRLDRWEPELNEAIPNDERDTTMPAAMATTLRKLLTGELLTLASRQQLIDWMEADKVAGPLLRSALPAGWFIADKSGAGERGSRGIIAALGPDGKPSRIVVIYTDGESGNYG
The target of a further test is ORF 73 (Human herpesvirus 8, UniProt O40947). In words: inhibitors of C-LANA binding to LBS DNA, dose response, biochemical, fluorescence polarization, cherry-picked samples (AID 504725).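 Further: fluorescence polarization of a labeled DNA duplex reporting LANA DNA binding; potency is for inhibitors that block LANA binding to the DNA.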 The arrangement: species or system Human gammaherpesvirus 8.
ORF 73, sequence (O40947 whole entry): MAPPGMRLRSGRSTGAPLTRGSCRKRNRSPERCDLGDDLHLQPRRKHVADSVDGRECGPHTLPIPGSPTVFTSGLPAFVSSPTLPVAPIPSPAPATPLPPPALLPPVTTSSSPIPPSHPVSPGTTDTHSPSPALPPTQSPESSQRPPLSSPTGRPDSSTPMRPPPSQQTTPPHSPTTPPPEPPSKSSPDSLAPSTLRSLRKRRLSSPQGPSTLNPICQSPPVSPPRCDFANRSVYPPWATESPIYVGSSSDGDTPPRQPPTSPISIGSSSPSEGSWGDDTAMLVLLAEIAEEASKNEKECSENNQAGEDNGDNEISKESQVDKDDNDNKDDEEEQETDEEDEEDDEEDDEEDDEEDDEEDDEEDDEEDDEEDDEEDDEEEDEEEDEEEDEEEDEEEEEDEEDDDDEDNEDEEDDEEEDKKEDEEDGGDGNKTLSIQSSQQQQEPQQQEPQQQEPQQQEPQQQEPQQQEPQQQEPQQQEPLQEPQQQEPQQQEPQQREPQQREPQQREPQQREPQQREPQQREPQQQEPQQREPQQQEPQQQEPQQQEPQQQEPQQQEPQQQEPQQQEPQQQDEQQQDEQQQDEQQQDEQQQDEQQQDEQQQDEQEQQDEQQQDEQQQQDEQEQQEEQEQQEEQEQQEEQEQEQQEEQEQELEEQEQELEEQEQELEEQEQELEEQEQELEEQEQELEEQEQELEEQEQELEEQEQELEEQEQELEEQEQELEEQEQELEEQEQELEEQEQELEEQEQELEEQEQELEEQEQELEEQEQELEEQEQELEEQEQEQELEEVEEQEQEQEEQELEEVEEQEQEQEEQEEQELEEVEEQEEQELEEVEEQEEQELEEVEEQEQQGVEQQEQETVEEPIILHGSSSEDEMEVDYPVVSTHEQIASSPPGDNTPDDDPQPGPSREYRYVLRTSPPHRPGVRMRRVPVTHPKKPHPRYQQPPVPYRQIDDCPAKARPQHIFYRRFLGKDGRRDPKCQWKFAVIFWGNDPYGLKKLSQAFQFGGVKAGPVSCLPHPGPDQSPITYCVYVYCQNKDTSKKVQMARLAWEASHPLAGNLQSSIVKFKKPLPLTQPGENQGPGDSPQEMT
The test system of test [6] is HEK293. In words: HEK cell cytotoxicity by LDH release, dose response, cytotoxicity control for IDE activator project, fluorescence, HEK cells (AID 588440).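 Further: cytotoxicity by LDH release measuring loss of membrane integrity.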 The class given is functional, cell-based. Particulars: Homo sapiens. On the technique in general: Release of lactate dehydrogenase indicates damage to the cell membrane.
Another test concerns the target Keap1/Nrf2 (Homo sapiens, UniProt Q14145). In words: Keap1-Nrf2 protein-protein interaction inhibitors, dose response, biochemical, fluorescence polarization, cherry-picked samples (AID 588683).
The target in test [7] is Beta-lactamase (Pseudomonas aeruginosa, UniProt Q79MP6).
Beta-lactamase (Pseudomonas aeruginosa, UniProt Q79MP6), sequence (Q79MP6 whole entry): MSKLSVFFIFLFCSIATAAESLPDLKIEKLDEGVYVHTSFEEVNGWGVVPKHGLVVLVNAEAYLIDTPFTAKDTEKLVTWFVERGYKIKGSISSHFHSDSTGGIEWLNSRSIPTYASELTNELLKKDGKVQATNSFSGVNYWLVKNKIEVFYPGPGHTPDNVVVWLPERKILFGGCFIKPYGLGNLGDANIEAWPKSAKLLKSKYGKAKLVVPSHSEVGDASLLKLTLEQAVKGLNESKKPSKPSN
The target in test [8] is T4, Insulin-degrading enzyme (Homo sapiens, UniProt P14735). Description: activators of recombinant IDE enzyme, dose response, counter-screen for IDE activator project, biochemical, fluorescence polarization (AID 588681).
T4 sequence (P14735 whole entry): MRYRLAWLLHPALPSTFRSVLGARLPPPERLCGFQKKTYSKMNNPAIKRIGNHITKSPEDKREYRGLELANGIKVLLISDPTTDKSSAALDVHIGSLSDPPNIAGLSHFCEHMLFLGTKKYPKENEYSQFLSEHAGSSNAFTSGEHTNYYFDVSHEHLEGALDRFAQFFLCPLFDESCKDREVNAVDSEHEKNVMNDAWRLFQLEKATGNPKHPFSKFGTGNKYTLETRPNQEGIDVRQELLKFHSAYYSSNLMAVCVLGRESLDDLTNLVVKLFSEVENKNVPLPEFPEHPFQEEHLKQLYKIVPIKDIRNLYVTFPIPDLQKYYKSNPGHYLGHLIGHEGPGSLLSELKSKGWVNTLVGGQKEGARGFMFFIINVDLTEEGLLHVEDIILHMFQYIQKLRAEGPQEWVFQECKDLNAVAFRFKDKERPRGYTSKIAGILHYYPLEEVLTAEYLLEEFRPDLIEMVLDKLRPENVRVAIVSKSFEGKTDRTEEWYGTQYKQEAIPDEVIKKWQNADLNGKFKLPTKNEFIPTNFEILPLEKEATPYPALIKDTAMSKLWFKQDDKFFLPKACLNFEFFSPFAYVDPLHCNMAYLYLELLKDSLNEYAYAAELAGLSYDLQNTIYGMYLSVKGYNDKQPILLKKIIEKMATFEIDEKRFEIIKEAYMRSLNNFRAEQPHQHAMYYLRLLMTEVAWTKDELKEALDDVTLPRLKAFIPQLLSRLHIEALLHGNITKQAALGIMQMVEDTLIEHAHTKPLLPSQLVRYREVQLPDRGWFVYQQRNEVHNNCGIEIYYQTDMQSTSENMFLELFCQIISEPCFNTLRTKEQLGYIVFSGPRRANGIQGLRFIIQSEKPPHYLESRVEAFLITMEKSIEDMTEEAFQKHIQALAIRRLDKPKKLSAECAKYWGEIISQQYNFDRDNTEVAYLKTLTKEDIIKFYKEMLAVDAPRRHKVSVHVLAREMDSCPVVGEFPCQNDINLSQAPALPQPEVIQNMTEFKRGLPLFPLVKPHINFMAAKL
The target in test [9] is T4, Insulin-degrading enzyme. Description: activators of endogenous IDE in HEK cells, dose response, cell-based, fluorescence polarization (AID 588439). The class given is functional.
Test [10] can be described thus: cytotoxicity toward NIH3T3 fibroblasts, dose response, counter-screen, cell-based, ATP luminescence, mouse fibroblasts (AID 2010).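 Further: cells exposed to compound for about 90 hours before reading.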 The format is functional.
The target in a further test is DNA topoisomerase (Yersinia pestis, UniProt A0A2S9PM60). In words: Y. pestis Topo-I inhibitors, cleavage product readout, dose response, biochemical, cherry-pick (AID 588525).
Test [11] in a line: inhibitors of intracellular T. cruzi replication, confirmation, NIH3T3 host cells, beta-gal luminescence (AID 2044).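 Further: intracellular parasites grown in NIH/3T3 mouse fibroblasts as host cells; luminescent beta-galactosidase reporter signal from transgenic T. cruzi replicating inside host cells; inhibitors lower the luminescence signal.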 The format is functional, cell-based.
A short description of test [12]: Luminescence Cell-Based Dose Response HTS to Identify Inhibitors of 5'UTR Stem-Loop Driven Prion Protein mRNA Translation in H4 Neuroglioblastoma Cells. [Related pubchem assays: 1827 (Project Summary), 1813 (Primary HTS)]. The format is functional.
Test [13] can be described thus: inhibitors of firefly luciferase expression or activity, dose response, H4 neuroglioma cells, luminescence (AID 1990). The class given is functional, cell-based.
Test [14] can be described thus: HEp-2 cell cytotoxicity, dose response, cytotoxicity control for RSV inhibitor project, HTS (AID 2410). The class given is functional. Particulars: human respiratory syncytial virus.
Test [15] is described as follows: inhibitors of SNCA 5'UTR-driven reporter translation, confirmation, H4 neuroglioma cells, luminescence (AID 1988). The format is functional, cell-based.
Test [16] relates to INS1. Description: protection from cytokine-driven beta-cell apoptosis, dose response, JC-1 fluorescence, INS-1E, dry powder, set 2 (AID 488867). The format is functional, cell-based. The note with it: Rattus norvegicus.
In test [17] the test system is INS1. Description: protection from cytokine-induced mitochondrial depolarization, dose response, cell-based, INS-1E, JC-1 fluorescence ratio, dry powder (AID 488931). The format is functional. Particulars: Rattus norvegicus.
Test [18] concerns INS1. In words: protection of INS-1E cells from cytokine death, dose response, ATP luminescence, dry powder (AID 488844). The class given is functional, cell-based. The note with it: Rattus norvegicus.
In another test the target is Phospholipase D2 (Homo sapiens, UniProt O14939). In words: PLD2 inhibitor potency in cells, dose response (AID 602147).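 Further: cellular assay in HEK293 cells overexpressing GFP-tagged PLD2.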 The format is functional.
Phospholipase D2, sequence (O14939 whole entry): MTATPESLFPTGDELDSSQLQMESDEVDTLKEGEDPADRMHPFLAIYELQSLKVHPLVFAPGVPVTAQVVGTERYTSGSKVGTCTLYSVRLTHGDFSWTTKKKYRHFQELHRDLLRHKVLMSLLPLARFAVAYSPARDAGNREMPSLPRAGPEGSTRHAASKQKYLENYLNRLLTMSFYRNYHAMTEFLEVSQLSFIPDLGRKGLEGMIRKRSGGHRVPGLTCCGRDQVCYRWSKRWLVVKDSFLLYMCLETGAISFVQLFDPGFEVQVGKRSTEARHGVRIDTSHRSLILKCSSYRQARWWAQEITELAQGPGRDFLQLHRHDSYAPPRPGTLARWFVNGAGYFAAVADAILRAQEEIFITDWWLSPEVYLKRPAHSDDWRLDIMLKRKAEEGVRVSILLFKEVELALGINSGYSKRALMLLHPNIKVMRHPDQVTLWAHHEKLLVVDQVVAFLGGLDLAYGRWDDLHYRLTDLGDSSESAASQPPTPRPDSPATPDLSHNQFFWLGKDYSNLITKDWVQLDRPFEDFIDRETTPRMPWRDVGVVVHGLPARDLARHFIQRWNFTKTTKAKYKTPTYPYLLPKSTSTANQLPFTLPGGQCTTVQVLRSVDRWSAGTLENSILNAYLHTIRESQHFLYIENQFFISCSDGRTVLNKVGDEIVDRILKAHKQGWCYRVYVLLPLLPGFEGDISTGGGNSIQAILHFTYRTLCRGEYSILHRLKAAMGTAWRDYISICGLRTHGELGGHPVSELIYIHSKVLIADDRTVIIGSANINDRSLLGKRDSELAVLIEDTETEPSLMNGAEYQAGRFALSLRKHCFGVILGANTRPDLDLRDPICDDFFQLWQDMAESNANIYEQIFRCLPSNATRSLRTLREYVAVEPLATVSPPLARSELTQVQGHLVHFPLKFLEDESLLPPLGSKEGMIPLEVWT
The target of a further test is Phospholipase D1 (Homo sapiens, UniProt Q13393). In words: PLD1 inhibitor potency in cells, dose response (AID 602151).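 Further: cellular PLD1 assay in Calu-1 cells stimulated with PMA.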 The class given is functional.
The target in test [19] is Voltage-gated inwardly rectifying potassium channel KCNH2 (Homo sapiens, UniProt Q12809). The note with it: Potency.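 Further: confirmatory quantitative high-throughput screen measuring inhibition of hERG channel activity.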
Voltage-gated inwardly rectifying potassium channel KCNH2, sequence (Q12809 whole entry): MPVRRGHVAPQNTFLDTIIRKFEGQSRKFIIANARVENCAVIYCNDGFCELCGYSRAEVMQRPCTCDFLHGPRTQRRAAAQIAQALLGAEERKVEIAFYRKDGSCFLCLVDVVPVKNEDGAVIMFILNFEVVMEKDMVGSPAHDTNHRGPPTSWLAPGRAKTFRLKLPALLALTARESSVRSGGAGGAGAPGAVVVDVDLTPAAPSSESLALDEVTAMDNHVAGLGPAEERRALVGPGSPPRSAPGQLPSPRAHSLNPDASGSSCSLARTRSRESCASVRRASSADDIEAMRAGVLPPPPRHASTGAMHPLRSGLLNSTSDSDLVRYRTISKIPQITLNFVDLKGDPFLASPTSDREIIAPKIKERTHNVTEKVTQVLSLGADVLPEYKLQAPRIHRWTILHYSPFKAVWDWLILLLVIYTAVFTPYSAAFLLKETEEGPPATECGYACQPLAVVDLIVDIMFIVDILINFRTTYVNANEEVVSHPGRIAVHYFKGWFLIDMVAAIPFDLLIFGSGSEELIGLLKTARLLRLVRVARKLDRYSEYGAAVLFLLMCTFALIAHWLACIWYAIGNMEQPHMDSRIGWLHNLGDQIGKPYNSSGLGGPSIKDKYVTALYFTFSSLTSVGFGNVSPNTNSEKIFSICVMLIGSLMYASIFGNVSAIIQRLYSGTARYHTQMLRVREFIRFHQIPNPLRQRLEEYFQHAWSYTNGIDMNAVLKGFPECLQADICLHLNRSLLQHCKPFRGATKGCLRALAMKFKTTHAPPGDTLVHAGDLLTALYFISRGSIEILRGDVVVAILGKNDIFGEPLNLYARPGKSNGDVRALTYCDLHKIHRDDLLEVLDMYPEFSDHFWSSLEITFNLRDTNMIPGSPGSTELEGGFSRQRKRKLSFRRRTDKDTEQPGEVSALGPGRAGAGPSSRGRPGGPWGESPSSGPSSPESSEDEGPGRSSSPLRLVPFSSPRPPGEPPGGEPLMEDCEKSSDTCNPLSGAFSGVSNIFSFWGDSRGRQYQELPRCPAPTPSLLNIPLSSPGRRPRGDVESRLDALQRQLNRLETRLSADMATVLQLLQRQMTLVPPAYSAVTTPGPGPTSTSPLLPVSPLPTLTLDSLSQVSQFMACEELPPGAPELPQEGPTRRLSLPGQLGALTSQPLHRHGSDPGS

As a reminder, the EC50 is the concentration giving half of the maximal effect. Usually IC50 stands for the concentration at which inhibition is half-maximal. Usually AC50 stands for the concentration giving half of the maximal activity seen. Turning to `CC(=O)NC1C(=O)N(CCN2CCOCC2)c2ccc(C)cc21` (configuration not stated), the EC50 at Protein RecA is 8.53 µM (active). Also, the IC50 at Hexokinase HKDC1 [1] was 4.45 µM (active); at Hexokinase HKDC1 [2], 4.71 µM (active); on Hexokinase-1 it was > 80 µM (inactive). In addition, in [3], the AC50 is 22.1 µM (active).

On to `CNc1ccc2c3c(cccc13)C(=O)N(C)C2=O`, for which the figures for the EC50 in the test on HEK293 [4], at Insulin-degrading enzyme [8] and at Insulin-degrading enzyme [9] were 6.57 µM (active), > 54.8 µM (inactive) and > 54.8 µM (inactive), respectively. In addition, the IC50 at Beta-lactamase [5] is 2.2 µM (active); in the test on HEK293 [6], > 89.3 µM (inactive); at Beta-lactamase [7], 3.92 µM (active). The AC50 is 588 nM (active) on ORF 73 and 399 nM (active) at Keap1/Nrf2.

For orientation: CC50 means the concentration that lowers cell viability or growth by half. In the case of `COc1ccc(-c2nc3c(c(=O)[nH]c(=O)n3Cc3ccccc3)n2Cc2ccccc2)cc1`, the EC50 was > 60 µM (inconclusive) in test [10]; 826 nM (active) in test [11]; > 120 µM (not active) in test [12]; 26.7 µM (active) in [13]; 17.7 µM (active) in test [15]. In addition, the AC50 at DNA topoisomerase is 7.41 µM (active). Moreover, in test [14], the CC50 was 7.31 µM (active).

For the compound `COc1ccc(S(=O)(=O)N(C)C[C@@H]2Oc3c(NC(=O)Nc4ccccc4)cccc3C(=O)N([C@@H](C)CO)C[C@H]2C)cc1`, the AC50 in the test on INS1 [16] is 58.9 µM (active); in the test on INS1 [17], 34.8 µM (active); with INS1 [18], > 260 µM (inactive).

Consider `O=C(NCCN1CCC2(CC1)C(=O)NCN2c1ccccc1)c1ncc(F)cc1F`, for which the IC50 is 5.4 µM (active) on Phospholipase D2 and 20 µM (active) at Phospholipase D1.

As for `CCCCOc1cc(CC2CNC(=O)N2)ccc1OC` (configuration not stated) [RO-201724], the AC50 in test [19] is 3.55 µM (inconclusive). For the same compound, in test [14], the CC50 is 23.8 µM (active).

The values above are taken from ChEMBL document CHEMBL1201862, “PubChem BioAssay data set” (2004).
